≈ marks a conversion by molar mass, not a printed value. Calls of active or inactive are those of the source. The calls are words filed in the database; no cut-off is given here.
Experiments:
[1] = test system: Klebsiella pneumoniae; assay: Antibacterial activity against ESBL-positive Klebsiella pneumoniae isolate J4 having blaSHV promoter sequence with IS26 insertion by Etest; format: functional
[2] = test system: Klebsiella pneumoniae; assay: Antibacterial activity against ESBL-positive Klebsiella pneumoniae isolate J5 having blaSHV promoter sequence with IS26 insertion by Etest; format: functional
[3] = test system: Klebsiella pneumoniae; assay: Antibacterial activity against ESBL-positive Klebsiella pneumoniae isolate K2 having blaSHV promoter sequence with IS26 insertion by Etest; format: functional
[4] = test system: Klebsiella pneumoniae; assay: Antibacterial activity against ESBL-negative Klebsiella pneumoniae isolate M1 by Etest; format: functional
[5] = test system: Klebsiella pneumoniae; assay: Antibacterial activity against ESBL-negative Klebsiella pneumoniae isolate 30 by Etest; format: functional
[6] = test system: Klebsiella pneumoniae; assay: Antibacterial activity against ESBL-negative Klebsiella pneumoniae isolate 85 by Etest; format: functional
[7] = test system: Klebsiella pneumoniae; assay: Antibacterial activity against ESBL-negative Klebsiella pneumoniae isolate 102 by Etest; format: functional
[8] = test system: Klebsiella pneumoniae; assay: Antibacterial activity against ESBL-negative Klebsiella pneumoniae isolate 104 by Etest; format: functional
[9] = test system: Klebsiella pneumoniae; assay: Antibacterial activity against ESBL-negative Klebsiella pneumoniae isolate 105 by Etest; format: functional
[10] = test system: Klebsiella pneumoniae; assay: Antibacterial activity against ESBL-negative Klebsiella pneumoniae isolate 106 by Etest; format: functional
[11] = test system: Klebsiella pneumoniae; assay: Antibacterial activity against ESBL-negative Klebsiella pneumoniae isolate 107 by Etest; format: functional
[12] = test system: Klebsiella pneumoniae; assay: Antibacterial activity against ESBL-negative Klebsiella pneumoniae isolate 108 by Etest; format: functional
[13] = test system: Klebsiella pneumoniae; assay: Antibacterial activity against ESBL-negative Klebsiella pneumoniae isolate 109 by Etest; format: functional
[14] = test system: Klebsiella pneumoniae; assay: Antibacterial activity against ESBL-positive Klebsiella pneumoniae isolate 110 having upstream IS26 insertion by Etest; format: functional
[15] = test system: Klebsiella pneumoniae; assay: Antibacterial activity against ESBL-negative Klebsiella pneumoniae isolate 113 by Etest; format: functional
[16] = test system: Klebsiella pneumoniae; assay: Antibacterial activity against ESBL-negative Klebsiella pneumoniae isolate 114 by Etest; format: functional
[17] = test system: Klebsiella pneumoniae; assay: Antibacterial activity against ESBL-negative Klebsiella pneumoniae isolate 115 by Etest; format: functional
[18] = test system: Klebsiella pneumoniae; assay: Antibacterial activity against ESBL-negative Klebsiella pneumoniae isolate 116 by Etest; format: functional
[19] = test system: Klebsiella pneumoniae; assay: Antibacterial activity against ESBL-positive Klebsiella pneumoniae isolate 119 having blaSHV promoter sequence with IS26 insertion by Etest; format: functional
[20] = test system: Klebsiella pneumoniae; assay: Antibacterial activity against ESBL-positive Klebsiella pneumoniae isolate 120 having upstream IS26 insertion by Etest; format: functional
[21] = test system: Klebsiella pneumoniae; assay: Antibacterial activity against ESBL-positive Klebsiella pneumoniae isolate 121 having upstream IS26 insertion by Etest; format: functional
[22] = test system: Klebsiella pneumoniae; assay: Antibacterial activity against ESBL-negative Klebsiella pneumoniae isolate 102 at 1 ug/ml by Etest; format: functional, organism-based
[23] = test system: Klebsiella pneumoniae; assay: Antibacterial activity against ESBL-negative Klebsiella pneumoniae isolate 106 at 1 ug/ml by Etest; format: functional, organism-based
[24] = test system: Klebsiella pneumoniae; assay: Antibacterial activity against ESBL-negative Klebsiella pneumoniae isolate 113 at 1 ug/ml by Etest; format: functional, organism-based
[25] = test system: Klebsiella pneumoniae; assay: Antibacterial activity against ESBL-negative Klebsiella pneumoniae isolate 114 at 1 ug/ml by Etest; format: functional, organism-based

SMILES: CO/N=C(\C(=O)N[C@@H]1C(=O)N2C(C(=O)O)=C(COC(C)=O)CS[C@H]12)c1csc(N)n1 [CEFOTAXIME]
- MIC [1]: > 16 µg/mL
- MIC [2]: > 16 µg/mL
- MIC [3]: > 16 µg/mL
- MIC [4]: 4 µg/mL (≈ 8.78 µM)
- MIC [5]: > 16 µg/mL
- MIC [6]: > 16 µg/mL
- MIC [7]: 3 µg/mL (≈ 6.59 µM)
- MIC [8]: 3 µg/mL (≈ 6.59 µM)
- MIC [9]: > 16 µg/mL
- MIC [10]: > 16 µg/mL
- MIC [11]: 0.5 µg/mL (≈ 1.1 µM)
- MIC [12]: 6 µg/mL (≈ 13.2 µM)
- MIC [13]: > 16 µg/mL
- MIC [14]: > 16 µg/mL
- MIC [15]: > 16 µg/mL
- MIC [16]: > 16 µg/mL
- MIC [17]: 8 µg/mL (≈ 17.6 µM)
- MIC [18]: > 16 µg/mL
- MIC [19]: > 16 µg/mL
- MIC [20]: > 16 µg/mL
- MIC [21]: > 16 µg/mL

SMILES: CC(C)(O/N=C(\C(=O)N[C@@H]1C(=O)N2C(C(=O)[O-])=C(C[n+]3ccccc3)CS[C@H]12)c1csc(N)n1)C(=O)O
- Activity [22]: Active
- Activity [23]: Active
- Activity [24]: Active
- Activity [25]: Active

Reference: ChEMBL document CHEMBL1151468, “Selection of SHV extended-spectrum-beta-lactamase-dependent cefotaxime and ceftazidime resistance in Klebsiella pneumoniae requires a plasmid-borne blaSHV gene” (2008)
